Measured values reported in publication PMC4352439, “Safety Evaluation of Chinese Medicine Injections with a Cell Imaging-Based Multiparametric Assay Revealed a Critical Involvement of Mitochondrial Function in Hepatotoxicity” (Evidence-based Complementary and Alternative Medicine : eCAM, 2015).
“And” between values parts separate entries of the source, which are not always exact repeats. Equal values may be shown once. Read-outs that look alike come from different tables or passages of the source.

What was measured:
[1] = test system: HepG2 cells; assay: multiparametric cell-based HCA hepatotoxicity assay; parameters: species or system human; details: for IC50: HepG2, 24-hour incubation
[2] = parameters: method as in earlier work; details: Operetta assay protocol; read-out: median concentration (IC50); cited from earlier work

| Structure (SMILES) | cell nucleuses (Hoechst 33342) in representative images ([1]; 3 μM) | mitochondrial mass (MS), intensity of Mitotracker Deep Red FM in representative images ([1]; 3 μM) | increase of plasma membrane permeability (PMP) ([1]; 30 μM) | IC50 ([1]; read-out: IC50 of cell number (CN)) | IC50 ([1]; read-out: IC50 of mitochondrial mass (MS)) | IC50 ([1]; read-out: IC50 of mitochondrial membrane potential (MMP)) | IC50 ([1]; read-out: IC50 of nuclear area (NA)) | IC50 ([1]; read-out: IC50 of plasma membrane permeability (PMP)) | IC50 [2] | increase of plasma membrane permeability (PMP) ([1]; 100 μM) | increase of nuclear area (NA) ([1]; 3 mM) | IC50 ([1]; listed as AAP, read-out: IC50 of cell number (CN)) | IC50 ([1]; listed as AAP, read-out: IC50 of mitochondrial mass (MS)) | IC50 ([1]; listed as AAP, read-out: IC50 of plasma membrane permeability (PMP)) | IC50 ([1]; Homo sapiens, HepG2, 24 h, read-out: IC50 of cell number (CN)) | IC50 ([1]; Homo sapiens, HepG2, 24 h, read-out: IC50 of mitochondrial mass (MS)) | IC50 ([1]; Homo sapiens, HepG2, 24 h, read-out: IC50 of plasma membrane permeability (PMP)) |
| --- | --- | --- | --- | --- | --- | --- | --- | --- | --- | --- | --- | --- | --- | --- | --- | --- | --- |
| N#CC(C#N)=NNc1ccc(OC(F)(F)F)cc1 [FCCP, P-fluoromethoxyphenylhydrazone] | shrunk | increase | 17.5 fold | 5.18 µM | 7.02 µM | 0.77 µM and 0.768 µM | 0.642 µM | 25.7 µM | 5.2 µM |  |  |  |  |  |  |  |  |
| CC(=O)Nc1ccc(O)cc1 [acetaminophen] |  |  |  |  |  |  |  |  | 1300 µM | 61.4 fold | 25.7% | 1840 µM | 9780 µM | 7.7 µM | 1840 µM | 9780 µM | 10 µM |
